Experimental data: ChEMBL document CHEMBL1201862, “PubChem BioAssay data set” (2004)
Active and inactive are the calls of the source.

Tests used:
Genome polyprotein = Genome polyprotein (Hepatitis C virus, UniProt Q2Q167); assay: disruption of hepatitis C core self-association – biochemical, TR-FRET, dose response (AID 2159); set-up: species or system Hepacivirus hominis;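 note: blocks dimerization of HCV core protein measured by TR-FRET between tagged core106 pairs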
Protein skinhead-1 = biological target: T1, Protein skinhead-1 (Caenorhabditis elegans, UniProt P34707); type: functional
T1 sequence (P34707 whole entry): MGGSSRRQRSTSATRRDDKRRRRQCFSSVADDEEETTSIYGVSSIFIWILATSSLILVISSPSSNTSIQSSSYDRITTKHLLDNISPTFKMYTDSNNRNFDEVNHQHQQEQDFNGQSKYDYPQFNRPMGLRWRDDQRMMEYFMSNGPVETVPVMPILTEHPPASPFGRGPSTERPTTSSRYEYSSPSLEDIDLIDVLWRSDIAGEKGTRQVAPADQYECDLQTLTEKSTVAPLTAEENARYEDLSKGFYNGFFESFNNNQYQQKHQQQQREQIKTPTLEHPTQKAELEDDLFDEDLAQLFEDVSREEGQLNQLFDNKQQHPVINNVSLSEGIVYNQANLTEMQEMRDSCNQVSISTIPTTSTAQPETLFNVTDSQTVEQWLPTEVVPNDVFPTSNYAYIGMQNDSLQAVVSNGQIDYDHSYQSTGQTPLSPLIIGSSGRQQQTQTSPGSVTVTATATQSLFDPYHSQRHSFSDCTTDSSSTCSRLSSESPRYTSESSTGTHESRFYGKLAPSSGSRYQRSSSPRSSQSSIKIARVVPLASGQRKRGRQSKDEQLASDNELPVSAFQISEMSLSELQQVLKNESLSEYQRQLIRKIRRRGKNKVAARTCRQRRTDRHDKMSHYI

[1] = blockade of melanocortin 4 receptor signaling – cell-based, plate reader, cherry pick, counter-screen for LGR2 antagonist project, dose response (AID 743444); type: functional;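 note: transfected HEK 293 cells stimulated with alpha-MSH peptide; potency of inhibitors of the alpha-MSH evoked signal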
[2] = blockers of bursicon-stimulated LGR2 cAMP reporter – cell-based, HEK293, CRE-luciferase reporter, cherry pick, set 2, dose response (AID 743343); type: functional;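 note: transfected cells were stimulated with diluted bursicon conditioned medium after compound addition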
Estrogen receptor = biological target: T2, Estrogen receptor (Homo sapiens, UniProt P03372); assay: ERα coactivator recruitment enhancers – biochemical, TR-FRET, ERα LBD, dose response (AID 737)
T2 sequence (P03372 whole entry): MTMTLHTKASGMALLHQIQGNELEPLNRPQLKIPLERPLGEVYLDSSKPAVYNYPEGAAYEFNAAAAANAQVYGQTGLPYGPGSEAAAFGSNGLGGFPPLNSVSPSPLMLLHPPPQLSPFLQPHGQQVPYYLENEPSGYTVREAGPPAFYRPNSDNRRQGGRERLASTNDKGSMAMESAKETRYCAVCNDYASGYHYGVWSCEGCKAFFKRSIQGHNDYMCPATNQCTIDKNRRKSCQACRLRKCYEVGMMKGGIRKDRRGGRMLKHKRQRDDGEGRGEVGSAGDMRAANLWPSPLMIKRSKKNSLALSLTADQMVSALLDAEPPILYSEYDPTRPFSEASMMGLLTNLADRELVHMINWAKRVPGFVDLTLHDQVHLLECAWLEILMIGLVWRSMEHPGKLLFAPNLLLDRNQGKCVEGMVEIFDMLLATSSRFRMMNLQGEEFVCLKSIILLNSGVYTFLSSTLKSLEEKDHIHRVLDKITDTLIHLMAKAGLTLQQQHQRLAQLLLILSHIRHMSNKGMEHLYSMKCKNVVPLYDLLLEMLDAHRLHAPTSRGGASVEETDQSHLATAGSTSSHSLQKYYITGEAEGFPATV

[3] = biological target: Bifunctional protein GlmU (Mycobacterium tuberculosis, UniProt P9WMN3); assay: Inhibitors of Mycobacterial Glucosamine-1-phosphate acetyl transferase (GlmU). Secondary screen.; set-up: species or system Mycobacterium tuberculosis H37Rv
[4] = biological target: T3, Long-chain-fatty-acid--AMP ligase FadD28 (Mycobacterium tuberculosis, UniProt P9WQ59); assay: Fluorescence polarization aasay to screen for inhibitors that compete for the binding of FadD28 to a bisubstrate Measured in Biochemical System Using Plate Reader - 2147-01_Inhibitor_Dose_CherryPick_Activity.; type: functional, Mycobacterium tuberculosis H37Rv
T3 sequence (P9WQ59 whole entry): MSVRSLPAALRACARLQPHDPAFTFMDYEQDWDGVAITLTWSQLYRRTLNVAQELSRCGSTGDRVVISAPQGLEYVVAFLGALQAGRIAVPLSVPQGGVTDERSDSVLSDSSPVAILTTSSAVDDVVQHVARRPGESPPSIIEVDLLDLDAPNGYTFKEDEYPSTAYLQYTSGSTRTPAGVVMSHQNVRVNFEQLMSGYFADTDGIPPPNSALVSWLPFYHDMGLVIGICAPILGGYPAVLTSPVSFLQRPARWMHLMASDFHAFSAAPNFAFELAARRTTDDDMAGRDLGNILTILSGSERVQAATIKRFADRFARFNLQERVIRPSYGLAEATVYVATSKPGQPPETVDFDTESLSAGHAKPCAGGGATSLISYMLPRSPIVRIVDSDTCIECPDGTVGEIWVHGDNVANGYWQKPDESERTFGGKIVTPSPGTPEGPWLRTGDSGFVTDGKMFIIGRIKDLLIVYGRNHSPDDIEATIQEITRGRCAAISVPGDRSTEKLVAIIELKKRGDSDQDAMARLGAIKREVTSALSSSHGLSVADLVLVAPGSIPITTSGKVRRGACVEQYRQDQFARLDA

[5] = biological target: T4, Aryl hydrocarbon receptor (Homo sapiens, UniProt P35869); assay: Luminescence-based cell-based high throughput dose response assay for activators of the Aryl Hydrocarbon Receptor (AHR). [Related pubchem assays: 2796 (Primary screen (AHR activators in singlicate)), 2845 (Confirmation screen (AHR activators in triplicate)), 434939 (Counterscreen (PXR activators in triplicate)), 2804 (Summary (AHR activators))]; type: ADME
T4 sequence (P35869 whole entry): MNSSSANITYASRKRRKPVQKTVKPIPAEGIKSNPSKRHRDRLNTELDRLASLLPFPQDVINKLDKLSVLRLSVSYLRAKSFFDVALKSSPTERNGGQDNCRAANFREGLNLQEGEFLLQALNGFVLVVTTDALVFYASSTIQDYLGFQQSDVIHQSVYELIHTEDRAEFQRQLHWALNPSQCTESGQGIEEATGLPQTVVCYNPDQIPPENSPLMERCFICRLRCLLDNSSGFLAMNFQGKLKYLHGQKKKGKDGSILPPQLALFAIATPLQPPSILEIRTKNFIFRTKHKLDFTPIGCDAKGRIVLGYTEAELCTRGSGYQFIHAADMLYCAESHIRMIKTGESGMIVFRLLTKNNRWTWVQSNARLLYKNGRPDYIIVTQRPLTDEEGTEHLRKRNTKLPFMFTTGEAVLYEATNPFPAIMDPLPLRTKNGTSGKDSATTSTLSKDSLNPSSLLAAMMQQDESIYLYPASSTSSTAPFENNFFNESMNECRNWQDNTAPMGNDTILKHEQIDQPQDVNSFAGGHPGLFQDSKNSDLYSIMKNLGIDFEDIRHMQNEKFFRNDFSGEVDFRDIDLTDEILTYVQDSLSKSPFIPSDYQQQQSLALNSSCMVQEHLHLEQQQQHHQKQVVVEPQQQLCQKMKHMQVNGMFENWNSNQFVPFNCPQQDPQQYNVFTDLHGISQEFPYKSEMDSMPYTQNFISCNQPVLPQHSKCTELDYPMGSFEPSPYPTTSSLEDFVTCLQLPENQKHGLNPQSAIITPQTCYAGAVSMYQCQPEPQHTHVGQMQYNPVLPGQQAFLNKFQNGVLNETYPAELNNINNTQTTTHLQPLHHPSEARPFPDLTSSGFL

H4 = assay: Luminescence Cell-Based Dose Response HTS to Identify Activators of 5'UTR Stem-Loop Driven Prion Protein mRNA Translation in H4 Neuroglioblastoma Cells. [Related pubchem assays: 1829 (Project Summary), 1814 (Primary HTS)]; type: functional; details: Homo sapiens
[6] = Luminescence Cell-Based Dose Response HTS to Identify Activators of Luciferase Translation or Activity in H4 […] Cells. [Related pubchem assays: 1829 (Project Summary), 1814 (Primary HTS)]; type: functional
[7] = Luminescence Cell-Based Dose Confirmation HTS to Identify Activators of 5'UTR Stem-Loop Driven Alpha-Synuclein mRNA Translation in H4 Neuroglioblastoma Cells. [Related pubchem assays: 1829 (Project Summary), 1814 (Primary HTS)]; type: functional
[8] = biological target: DNA dC->dU-editing enzyme APOBEC-3G (Homo sapiens, UniProt Q9HC16); type: functional;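 note: Dose-response counterscreen measuring inhibition of APOBEC3G DNA deaminase activity, run while confirming APOBEC3A inhibitors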
[9] = biological target: DNA dC->dU-editing enzyme APOBEC-3A (Homo sapiens, UniProt P31941); assay: Dose Response confirmation of small molecule APOBEC3A DNA Deaminase Inhibitors via a fluorescence-based single-stranded DNA deaminase assay. [Related pubchem assays (depositor defined):AID493011, AID493024]; type: functional
[10] = biological target: T5, Mannose-6-phosphate isomerase (Homo sapiens, UniProt P34949); assay: MPI inhibition at elevated mannose 6-phosphate – biochemical, fluorescence intensity, high mannose 6-phosphate, primary screen (AID 1220)
T5 sequence (P34949 whole entry): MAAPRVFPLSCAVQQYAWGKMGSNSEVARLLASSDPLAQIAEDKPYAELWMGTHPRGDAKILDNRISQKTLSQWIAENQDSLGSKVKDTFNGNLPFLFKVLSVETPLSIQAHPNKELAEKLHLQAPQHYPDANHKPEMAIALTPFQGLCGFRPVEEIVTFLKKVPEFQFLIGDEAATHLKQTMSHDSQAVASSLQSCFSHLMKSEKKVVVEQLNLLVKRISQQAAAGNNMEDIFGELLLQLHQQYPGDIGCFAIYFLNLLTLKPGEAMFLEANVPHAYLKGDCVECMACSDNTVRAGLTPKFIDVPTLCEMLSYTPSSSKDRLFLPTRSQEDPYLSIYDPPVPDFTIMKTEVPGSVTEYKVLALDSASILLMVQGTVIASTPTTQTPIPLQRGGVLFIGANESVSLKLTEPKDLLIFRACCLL

[11] = tested on: Streptococcus sp. 'group A'; assay: Streptococcus pyogenes SK(-)GAS viability under kanamycin – luminescence, BacTiterGlo, confirmation, counter-screen for streptokinase expression inhibitor project, dose response (AID 1900); type: functional, organism-based
Streptokinase A = biological target: T6, Streptokinase A (Streptococcus pyogenes serotype M1, UniProt P10520); assay: viability-normalized secreted streptokinase activity reduction – plasminogen activation absorbance, OD405, dose response (AID 1914); type: functional, Streptococcus pyogenes M1 GAS;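 note: secreted streptokinase activity via plasminogen activation per viability signal from cell pellet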
T6 sequence (P10520 whole entry): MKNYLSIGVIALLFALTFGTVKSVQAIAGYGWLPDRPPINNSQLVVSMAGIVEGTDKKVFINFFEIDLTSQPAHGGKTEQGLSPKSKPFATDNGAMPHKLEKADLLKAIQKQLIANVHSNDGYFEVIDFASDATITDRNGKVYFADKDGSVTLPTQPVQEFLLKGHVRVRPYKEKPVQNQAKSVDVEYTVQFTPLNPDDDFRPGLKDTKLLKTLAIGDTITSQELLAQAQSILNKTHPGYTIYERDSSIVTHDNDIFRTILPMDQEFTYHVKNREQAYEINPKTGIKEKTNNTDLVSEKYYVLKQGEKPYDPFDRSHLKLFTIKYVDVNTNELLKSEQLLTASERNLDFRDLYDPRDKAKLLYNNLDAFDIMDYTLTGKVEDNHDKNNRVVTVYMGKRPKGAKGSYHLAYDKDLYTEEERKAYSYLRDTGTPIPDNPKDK

[12] = biological target: T5, Mannose-6-phosphate isomerase; assay: MPI enzyme activity inhibition – biochemical, fluorescence intensity, coupled assay, primary screen (AID 1209)
Streptococcus = assay: GAS UMAA2166 growth inhibition – luminescence, BacTiterGlo, counter-screen for streptokinase expression inhibitor project, dose response (AID 1915); type: functional, organism-based;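 note: potency for reduction of bacterial viability or growth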
[13] = viability loss in THP-1 monocytes – THP-1 cells, cytotoxicity control for Vif-APOBEC3G degradation inhibitor project, dose response (AID 1117359); type: functional; details: THP-1

Chain of Bifunctional protein GlmU (P9WMN3 whole entry): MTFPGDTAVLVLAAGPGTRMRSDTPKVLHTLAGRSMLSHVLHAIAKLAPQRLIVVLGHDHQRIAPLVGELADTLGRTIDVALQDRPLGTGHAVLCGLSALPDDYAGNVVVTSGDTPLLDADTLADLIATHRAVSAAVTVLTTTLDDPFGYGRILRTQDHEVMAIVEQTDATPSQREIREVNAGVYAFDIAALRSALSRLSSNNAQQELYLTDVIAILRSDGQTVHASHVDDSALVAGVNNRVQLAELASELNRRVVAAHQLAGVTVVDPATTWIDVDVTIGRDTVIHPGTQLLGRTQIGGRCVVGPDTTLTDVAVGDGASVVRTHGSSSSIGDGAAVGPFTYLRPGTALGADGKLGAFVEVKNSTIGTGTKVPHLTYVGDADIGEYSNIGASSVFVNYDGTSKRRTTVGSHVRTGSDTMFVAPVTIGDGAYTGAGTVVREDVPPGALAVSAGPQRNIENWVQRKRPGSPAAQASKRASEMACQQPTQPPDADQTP
Chain of DNA dC->dU-editing enzyme APOBEC-3A (P31941 whole entry): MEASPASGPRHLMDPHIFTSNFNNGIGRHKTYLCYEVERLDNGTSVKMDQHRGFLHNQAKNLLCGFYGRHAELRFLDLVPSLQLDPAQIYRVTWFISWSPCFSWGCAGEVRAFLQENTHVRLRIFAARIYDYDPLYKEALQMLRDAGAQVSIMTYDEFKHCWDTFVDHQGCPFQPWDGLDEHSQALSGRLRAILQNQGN
Chain of Genome polyprotein (Q2Q167 whole entry): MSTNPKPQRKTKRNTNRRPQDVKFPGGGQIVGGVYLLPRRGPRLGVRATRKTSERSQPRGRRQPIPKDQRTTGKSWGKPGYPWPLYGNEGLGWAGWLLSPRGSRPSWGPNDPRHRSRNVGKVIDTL
Chain of DNA dC->dU-editing enzyme APOBEC-3G (Q9HC16 whole entry): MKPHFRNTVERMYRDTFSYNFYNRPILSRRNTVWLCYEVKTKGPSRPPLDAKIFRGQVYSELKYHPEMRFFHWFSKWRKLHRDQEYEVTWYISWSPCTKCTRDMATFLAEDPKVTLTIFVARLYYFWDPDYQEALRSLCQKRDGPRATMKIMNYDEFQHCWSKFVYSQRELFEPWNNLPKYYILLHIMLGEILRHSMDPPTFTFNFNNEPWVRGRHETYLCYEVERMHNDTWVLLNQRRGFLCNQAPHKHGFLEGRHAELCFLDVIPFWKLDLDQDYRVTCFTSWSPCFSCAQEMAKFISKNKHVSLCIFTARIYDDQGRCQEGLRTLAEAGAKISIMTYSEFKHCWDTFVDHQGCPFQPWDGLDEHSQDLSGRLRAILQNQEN

In the case of `COc1ccc(-n2c(-c3ccc(Br)cc3)nc(=S)c3c2CCCC3)cc1`, the IC50 (Genome polyprotein) is reported as > 49.8 µM (not active).

For `O=C(Nc1cccnc1)c1cc(-c2ccc3c(c2)OCO3)on1`, the IC50 (Protein skinhead-1) was > 100 µM (inactive), the AC50 [1] was 5.56 µM (active) and the AC50 [2] was 5.5 µM (active). For the same compound, the EC50 (Estrogen receptor) was 12.9 µM (not active).

In the case of `Cc1cc(N)n(-c2ccc(Oc3ccccc3)c(S(=O)(=O)O)c2)n1`, the IC50 [3] is reported as 123 µM (active) and the AC50 [4] is reported as > 100 µM (inactive).

In the case of `Cc1nnc(N2C(=O)c3cccc4c([N+](=O)[O-])ccc(c34)C2=O)s1`, the EC50 [5] is reported as 0.733 µM (active).

For `CCn1c(SCC(=O)Nc2cccc(F)c2)nnc1-c1cc2cc(Br)ccc2o1`, the EC50 (H4) was > 120 µM (not active), the EC50 [6] was 10.8 µM (active) and the EC50 [7] was > 120 µM (not active). For the same compound, the EC50 (Estrogen receptor) was 11.1 µM (active), the IC50 [8] was 5.3 µM (active) and the IC50 [9] was 2.82 µM (active).

In the case of `Cc1ccc(/N=C/c2cccc(O)c2O)c(C)c1`, the IC50 [10] is reported as 14 µM (active), the EC50 [11] is reported as > 150 µM (not active) and the EC50 (Streptokinase A) is reported as > 150 µM (not active). For the same compound, the IC50 [12] was 23.3 µM (active) and the EC50 (Streptococcus) was 7.41 µM (active).

For `Cc1cc(Nc2ccc(Br)cc2)n2nc(C)nc2n1`, the CC50 [13] was > 40 µM (active) and the EC50 [5] was 0.117 µM (active).
